Data: ChEMBL document CHEMBL5331104, “Discovery of BRD4-HDAC Dual Inhibitors with Improved Fungal Selectivity and Potent Synergistic Antifungal Activity against Fluconazole-Resistant Candida albicans” (J Med Chem, 2023)
pIC50: −log10 of the molar value. Converted amounts (≈) assume the structure as drawn. The source made the active and inactive calls. The calls are words filed in the database; no cut-off is given here.

Columns and labels:
[1] = tested on: Candida albicans; experiment: microbe, parasite or virus in culture; assay type: functional; details: 0304103
Description: Antifungal activity against Candida albicans 0304103 assessed as microbial growth inhibition

[2] = tested on: Candida albicans; experiment: Antifungal activity against Candida albicans 10061 assessed as microbial growth inhibition; assay type: functional
[3] = tested on: HEL; experiment: Antiproliferative activity against human HEL cells incubated for 48 hrs by CCK8 assay; assay type: functional, cell-based
[4] = tested on: Candida albicans; assay type: functional, 0304103; details: time 24 hrs
Description: Synergetic antifungal activity against Candida albicans 0304103 assessed as fractional inhibitory concentration index incubated for 24 hrs in the presence of fluconazole by checkerboard microdilution method

[5] = tested on: Candida albicans; experiment: Synergetic antifungal activity against Candida albicans 10061 assessed as microbial growth inhibition incubated for 24 hrs in the presence of fluconazole by checkerboard microdilution method; assay type: functional
[6] = tested on: Candida albicans; experiment: Antibiofilm activity against FLC-resistant Candida albicans 0304103 assessed as reduction in fungal growth at 32 ug/mL and measured for 48 hrs by time-growth curve assay; assay type: functional, organism-based; details: dose 32.0 µg/ml
[7] = tested on: Candida albicans; experiment: microbe, parasite or virus in culture; assay type: functional; details: 0304103, time 24 hrs
Description: Synergetic antifungal activity against Candida albicans 0304103 assessed as microbial growth inhibition incubated for 24 hrs in the presence of fluconazole by checkerboard microdilution method

[8] = tested on: Cryptococcus neoformans; experiment: Antifungal activity against Cryptococcus neoformans 011405 assessed as microbial growth inhibition; assay type: functional
[9] = tested on: Candida albicans; experiment: Downregulation of CDR1 expression in Candida albicans 0304103 at 32 ug/mL incubated for 24 hrs by RT q-PCR analysis; assay type: functional; details: dose 32.0 µg/ml
[10] = tested on: Cryptococcus neoformans; experiment: Synergetic antifungal activity against Cryptococcus neoformans 011405 assessed as fractional inhibitory concentration index incubated for 24 hrs in the presence of fluconazole by checkerboard microdilution method; assay type: functional
[11] = tested on: [Candida] auris; experiment: Antifungal activity against Candida auris 0030 assessed as microbial growth inhibition; assay type: functional; details: Candidozyma auris
[12] = tested on: Candida albicans; experiment: Synergetic antifungal activity against Candida albicans 9172 assessed as microbial growth inhibition incubated for 24 hrs in the presence of fluconazole by checkerboard microdilution method; assay type: functional
[13] = biological target: Histone deacetylase 1 (Homo sapiens, UniProt Q13547); experiment: Inhibition of full-length recombinant human HDAC1 (1 to 482 residues) expressed in baculovirus infected insect cells using […] as substrate incubated for 30 mins by fluorescence based analysis; design: species or system Insect cell
Histone deacetylase 1, sequence (Q13547 whole entry, the tested form may be a part): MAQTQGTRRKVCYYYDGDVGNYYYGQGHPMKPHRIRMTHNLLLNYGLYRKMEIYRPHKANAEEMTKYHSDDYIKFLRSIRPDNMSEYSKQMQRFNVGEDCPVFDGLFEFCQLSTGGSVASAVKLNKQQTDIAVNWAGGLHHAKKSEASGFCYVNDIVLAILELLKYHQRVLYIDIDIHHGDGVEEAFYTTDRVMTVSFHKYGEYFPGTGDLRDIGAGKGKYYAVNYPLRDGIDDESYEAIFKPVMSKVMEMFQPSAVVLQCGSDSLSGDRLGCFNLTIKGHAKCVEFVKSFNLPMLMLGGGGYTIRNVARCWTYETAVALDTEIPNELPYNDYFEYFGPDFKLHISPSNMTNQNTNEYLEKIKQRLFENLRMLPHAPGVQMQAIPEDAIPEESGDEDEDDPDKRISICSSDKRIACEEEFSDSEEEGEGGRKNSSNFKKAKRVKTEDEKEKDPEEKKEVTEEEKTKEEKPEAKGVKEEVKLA

[14] = tested on: Candida albicans; experiment: Antifungal activity against Candida albicans 9884 assessed as microbial growth inhibition; assay type: functional
[15] = tested on: K562; experiment: Antiproliferative activity against human K562 cells incubated for 48 hrs by CCK8 assay; assay type: functional, cell-based; details: K562, 48 h
[16] = tested on: Candida albicans; experiment: Downregulation of MDR1 expression in Candida albicans 0304103 at 32 ug/mL incubated for 24 hrs by RT q-PCR analysis; assay type: functional; details: dose 32.0 µg/ml
[17] = tested on: Candida albicans; experiment: Antifungal activity against Candida albicans 0304103 infected in ICR mouse assessed as decrease in kidney fungal burden at 10 mg/kg, ip administered for 5 consecutive days in the presence of fluconazole; assay type: functional, organism-based; details: time 5.0 day
[18] = tested on: Nakaseomyces glabratus; experiment: Antifungal activity against Candida glabrata 4408 assessed as microbial growth inhibition; assay type: functional
[19] = tested on: Candida albicans; experiment: Downregulation of MDR1 expression in Candida albicans 0304103 at 32 ug/mL incubated for 24 hrs in the presence of fluconazole by RT q-PCR analysis; assay type: functional; details: dose 32.0 µg/ml
[20] = tested on: Cryptococcus neoformans; experiment: Synergetic antifungal activity against Cryptococcus neoformans 011405 assessed as microbial growth inhibition incubated for 24 hrs in the presence of fluconazole by checkerboard microdilution method; assay type: functional
[21] = tested on: Candida albicans; experiment: Synergetic antifungal activity against Candida albicans 9172 assessed as fractional inhibitory concentration index incubated for 24 hrs in the presence of fluconazole by checkerboard microdilution method; assay type: functional
[22] = biological target: Histone deacetylase; experiment: Inhibition of total HDAC in human HUVEC cells using Boc-Lys(Ac)-AMC as substrate preincubated for 12 hrs followed by substrate addition measured after 6 hrs by microtiter plate reader analysis; assay type: cell-based
[23] = tested on: Candida albicans; experiment: Downregulation of CDR2 expression in Candida albicans 0304103 at 32 ug/mL incubated for 24 hrs by RT q-PCR analysis; assay type: functional; details: dose 32.0 µg/ml
[24] = tested on: Nakaseomyces glabratus; experiment: Synergetic antifungal activity against Candida glabrata 4408 assessed as microbial growth inhibition incubated for 24 hrs in the presence of fluconazole by checkerboard microdilution method; assay type: functional
[25] = tested on: Candida albicans; experiment: Synergistic antibiofilm activity against FLC-resistant Candida albicans 0304103 assessed as inhibition of fungal growth at 32 ug/mL and measured for 48 hrs in the presence of fluconazole by time-growth curve assay; assay type: functional; design: scale not given: the % may be the effect or the level left; details: dose 32 µg/ml
[26] = tested on: [Candida] auris; experiment: Synergetic antifungal activity against Candida auris 0030 assessed as fractional inhibitory concentration index incubated for 24 hrs in the presence of fluconazole by checkerboard microdilution method; assay type: functional, Candidozyma auris
[27] = tested on: Candida albicans; experiment: Downregulation of ADH5 expression in Candida albicans 0304103 at 32 ug/mL incubated for 24 hrs in the presence of fluconazole by RT q-PCR analysis; assay type: functional; details: dose 32.0 µg/ml
[28] = tested on: Candida albicans; experiment: Downregulation of CDR1 expression in Candida albicans 0304103 at 32 ug/mL incubated for 24 hrs in the presence of fluconazole by RT q-PCR analysis; assay type: functional; details: dose 32.0 µg/ml
[29] = tested on: HL-60; experiment: Antiproliferative activity against human HL-60 cells incubated for 48 hrs by CCK8 assay; assay type: functional, cell-based; details: HL-60, 48 h
[30] = tested on: Candida albicans; experiment: Synergetic antifungal activity against Candida albicans 9884 assessed as microbial growth inhibition incubated for 24 hrs in the presence of fluconazole by checkerboard microdilution method; assay type: functional
[31] = tested on: Candida albicans; experiment: Antifungal activity against Candida albicans SC5314 assessed as fungal growth inhibition incubated for 24 hrs by broth dilution method; assay type: functional
[32] = tested on: Candida albicans; experiment: Downregulation of GCA1 expression in Candida albicans 0304103 at 32 ug/mL incubated for 24 hrs by RT q-PCR analysis; assay type: functional; details: dose 32.0 µg/ml
[33] = tested on: Candida albicans; experiment: Antibiofilm activity against FLC-resistant Candida albicans 0304103 assessed as inhibition of biofilm formation at 64 ug/mL incubated for 24 hrs by XTT reduction assay; assay type: functional, organism-based; details: dose 64.0 µg/ml
[34] = tested on: [Candida] auris; experiment: Synergetic antifungal activity against Candida auris 0029 assessed as microbial growth inhibition incubated for 24 hrs in the presence of fluconazole by checkerboard microdilution method; assay type: functional; details: Candidozyma auris
[35] = tested on: Candida albicans; experiment: Synergistic antibiofilm activity against FLC-resistant Candida albicans 0304103 assessed as inhibition of biofilm formation at 64 ug/mL incubated for 24 hrs in presence of by XTT reduction assay relative to control; assay type: functional; design: scale not given: the % may be the effect or the level left; details: dose 64 µg/ml
[36] = tested on: Candida albicans; experiment: Downregulation of CDR2 expression in Candida albicans 0304103 at 32 ug/mL incubated for 24 hrs in the presence of fluconazole by RT q-PCR analysis; assay type: functional; details: dose 32.0 µg/ml
[37] = tested on: Candida albicans; experiment: Downregulation of ERG11 expression in Candida albicans 0304103 at 32 ug/mL incubated for 24 hrs in the presence of fluconazole by RT q-PCR analysis; assay type: functional; details: dose 32.0 µg/ml
[38] = tested on: Candida albicans; experiment: Downregulation of GCA1 expression in Candida albicans 0304103 at 32 ug/mL incubated for 24 hrs in the presence of fluconazole by RT q-PCR analysis; assay type: functional; details: dose 32.0 µg/ml
[39] = tested on: Cryptococcus neoformans; experiment: Antifungal activity against Cryptococcus neoformans H99 assessed as fungal growth inhibition incubated for 24 hrs by broth dilution method; assay type: functional
[40] = tested on: Candida albicans; experiment: Synergetic antifungal activity against Candida albicans 10061 assessed as fractional inhibitory concentration index incubated for 24 hrs in the presence of fluconazole by checkerboard microdilution method; assay type: functional
[41] = tested on: Candida albicans; experiment: Synergistic antifungal activity against Candida albicans 0304103 assessed as reduction in yeast to hypha transition at 32 ug/mL incubated for 2 hrs in the presence of fluconazole by inverse fluorescence microscopy; assay type: functional, organism-based; details: dose 32.0 µg/ml
[42] = tested on: Candida albicans; experiment: Antifungal activity against Candida albicans 9172 assessed as microbial growth inhibition; assay type: functional
[43] = tested on: Candida albicans; experiment: Downregulation of ERG11 expression in Candida albicans 0304103 at 32 ug/mL incubated for 24 hrs by RT q-PCR analysis; assay type: functional; details: dose 32.0 µg/ml
[44] = tested on: Candida albicans; experiment: Antifungal activity against Candida albicans 0304103 assessed as reduction in yeast to hypha transition at 32 ug/mL incubated for 2 hrs by inverse fluorescence microscopy; assay type: functional, organism-based; details: dose 32.0 µg/ml
[45] = tested on: Candida albicans; experiment: Antifungal activity against Candida albicans 0304103 infected in ICR mouse assessed as reduction in kidney fungal burden at 10 mg/kg, ip administered for 5 consecutive days; assay type: functional, organism-based; details: time 5.0 day
[46] = tested on: Nakaseomyces glabratus; experiment: Synergetic antifungal activity against Candida glabrata 4408 assessed as fractional inhibitory concentration index incubated for 24 hrs in the presence of fluconazole by checkerboard microdilution method; assay type: functional
[47] = in vitro; details: human, HUVEC cells
Description: Cytotoxicity against HUVECs assessed as inhibition of cell growth incubated for 48 hrs by CCK8 assay

[48] = tested on: [Candida] auris; experiment: Antifungal activity against Candida auris 0029 assessed as microbial growth inhibition; assay type: functional; details: Candidozyma auris
[49] = tested on: [Candida] auris; experiment: Synergetic antifungal activity against Candida auris 0029 assessed as fractional inhibitory concentration index incubated for 24 hrs in the presence of fluconazole by checkerboard microdilution method; assay type: functional, Candidozyma auris
[50] = tested on: [Candida] auris; experiment: Synergetic antifungal activity against Candida auris 0030 assessed as microbial growth inhibition incubated for 24 hrs in the presence of fluconazole by checkerboard microdilution method; assay type: functional; details: Candidozyma auris
[51] = tested on: Candida albicans; experiment: Downregulation of ADH5 expression in Candida albicans 0304103 at 32 ug/mL incubated for 24 hrs by RT q-PCR analysis; assay type: functional; details: dose 32.0 µg/ml
[52] = tested on: Candida albicans; experiment: Synergetic antifungal activity against Candida albicans 9884 assessed as fractional inhibitory concentration index incubated for 24 hrs in the presence of fluconazole by checkerboard microdilution method; assay type: functional

Cc1nnc2n1-c1sc3c(c1C(c1ccc(Cl)cc1)=N[C@H]2CC(=O)NCc1ccc(C(=O)NO)cc1)CCCC3
MIC80 [1]: > 64 µg/mL
MIC80 [2]: > 64 µg/mL
pIC50 [3]: 5.14
fractional inhibitory concentration index (FICI) [4]: 0.063
MIC80 [5]: 2 µg/mL
Activity [6]: inactive
MIC80 [7]: 2 µg/mL (≈ 3.48 µM)
MIC80 [8]: 32 µg/mL (≈ 55.6 µM)
Activity [9]: Active
fractional inhibitory concentration index (FICI) [10]: 0.31
MIC80 [11]: > 64 µg/mL
MIC80 [12]: 4 µg/mL
pIC50 [13]: 5.62
MIC80 [14]: > 64 µg/mL
pIC50 [15]: < 5.00
Activity [16]: Active
Activity [17]: Active
MIC80 [18]: 8 µg/mL (≈ 13.9 µM)
Activity [19]: Active
MIC80 [20]: 2 µg/mL
fractional inhibitory concentration index (FICI) [21]: 0.07
IC50 [22]: 4.3 µM
Activity [23]: Active
MIC80 [24]: 2 µg/mL
Activity [25]: 100%
fractional inhibitory concentration index (FICI) [26]: 1.5
Activity [27]: Active
Activity [28]: Active
pIC50 [29]: 5.51
MIC80 [30]: 4 µg/mL
MIC80 [31]: > 64 µg/mL
Activity [32]: Active
Activity [33]: inactive
MIC80 [34]: 32 µg/mL
Activity [35]: 80%
Activity [36]: Active
Activity [37]: Active
Activity [38]: Active
MIC80 [39]: 8 µg/mL (≈ 13.9 µM)
fractional inhibitory concentration index (FICI) [40]: 0.047
Activity [41]: Active
MIC80 [42]: > 64 µg/mL
Activity [43]: Active
Activity [44]: inactive
Activity [45]: inactive
fractional inhibitory concentration index (FICI) [46]: 0.28
IC50 at 48 h [47]: 18 µM
MIC80 [48]: > 64 µg/mL
fractional inhibitory concentration index (FICI) [49]: 1.5
MIC80 [50]: 32 µg/mL
Activity [51]: Active
fractional inhibitory concentration index (FICI) [52]: 0.19
